The text below walks through data of patent publication US6534524B1, “Indazole compounds and pharmaceutical compositions for inhibiting protein kinases, and methods for their use” (Agouron Pharmaceuticals, Inc., priority 1999, dated 2003).

The target of one experiment is CDK1 (Homo sapiens, UniProt P06493). Description: CDK1 inhibition. In kind it is biochemical. To be noted: Table 3.
Experiment [1] concerns the target T1, phosphorylase kinase (truncated catalytic gamma subunit) (Oryctolagus cuniculus, UniProt P00518).
T1 construct: (gamma subunit) of phosphorylase kinase (amino acids 1-298); made in house
Description: Phosphorylase kinase assay. In kind it is biochemical. As to conditions: 10 μM of compound.
Description: Phosphorylase Kinase Assay. In the assay, the purified catalytic subunit is used to phosphorylate phosphorylase b using radiolabled ATP. Briefly, 1.5 mg/ml of phosphorylase b is incubated with 10 nM phosphorylase kinase in 10 Mm MgCl2, 50 mM Hepes pH 7.4, at 37° C. […] The reaction was terminated and proteins were precipitated by the addition of TCA to 10% final concentration. […] The filter plate was then extensively washed with 20% TCA, and dried. Scintilation fluid was then added to the plate and incorporated radiolabel was counted on a Wallac microbeta counter.

The next experiment concerns the target T2, human CHK1 (FL-CHK1) (Homo sapiens, UniProt O14757).
T2 construct: C-terminally His-tagged full-length human CHK1 (FL-CHK1); made in house; host or cells: baculovirus/insect cell system
T2 sequence (O14757 1-476): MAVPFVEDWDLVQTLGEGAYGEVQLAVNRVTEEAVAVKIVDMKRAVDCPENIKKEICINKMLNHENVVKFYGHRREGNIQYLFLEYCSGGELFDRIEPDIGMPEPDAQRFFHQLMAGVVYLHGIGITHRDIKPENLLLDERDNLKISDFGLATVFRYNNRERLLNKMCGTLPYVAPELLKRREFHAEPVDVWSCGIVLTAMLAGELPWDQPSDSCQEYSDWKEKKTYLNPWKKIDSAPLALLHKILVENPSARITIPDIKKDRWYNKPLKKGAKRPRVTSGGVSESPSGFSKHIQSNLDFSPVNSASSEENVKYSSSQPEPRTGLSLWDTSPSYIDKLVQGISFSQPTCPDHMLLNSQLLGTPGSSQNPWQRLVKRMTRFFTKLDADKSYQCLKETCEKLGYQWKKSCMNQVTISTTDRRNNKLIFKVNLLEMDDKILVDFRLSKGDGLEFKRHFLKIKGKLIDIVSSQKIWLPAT
The experiment in a line: CHK1 assay (coupled spectrophotometric, Syntide-2). The experiment is classed as biochemical. To be noted: Table 3; read-out: CHK-1 Ki. An outline of the steps: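 Full-length C-terminally His-tagged human CHK1 expressed in baculovirus/insect cells, used at 10 nM with Syntide-2 substrate. ADP formation coupled via PK/LDH to NADH oxidation, followed as absorbance decrease at 340 nm. Ki from initial rates at varying compound concentrations.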

Experiment [2] deals with unphosphorylated VEGF-R2Δ50 (FLVK) (Homo sapiens, UniProt P35968, DEL940-989/E990V). The experiment in a line: VEGF-R2 coupled spectrophotometric assay, unphosphorylated VEGF-R2Δ50 (FLVK). To be noted: read-out: FLVK % inhibition.
Chain of unphosphorylated VEGF-R2Δ50 (FLVK) (P35968 with tags, fused parts or gaps DEL940-989/E990V limits assumed): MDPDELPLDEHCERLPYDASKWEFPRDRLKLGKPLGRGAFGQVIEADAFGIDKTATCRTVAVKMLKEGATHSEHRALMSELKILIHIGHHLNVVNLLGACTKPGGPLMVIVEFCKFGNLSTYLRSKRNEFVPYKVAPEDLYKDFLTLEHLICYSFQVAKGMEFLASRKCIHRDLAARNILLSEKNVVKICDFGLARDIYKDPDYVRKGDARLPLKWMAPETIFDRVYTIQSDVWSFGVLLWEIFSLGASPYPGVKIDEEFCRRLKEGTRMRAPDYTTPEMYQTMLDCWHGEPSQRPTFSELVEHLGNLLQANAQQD

Chain of CDK1 (P06493 whole entry, species assumed, the tested form may be a part): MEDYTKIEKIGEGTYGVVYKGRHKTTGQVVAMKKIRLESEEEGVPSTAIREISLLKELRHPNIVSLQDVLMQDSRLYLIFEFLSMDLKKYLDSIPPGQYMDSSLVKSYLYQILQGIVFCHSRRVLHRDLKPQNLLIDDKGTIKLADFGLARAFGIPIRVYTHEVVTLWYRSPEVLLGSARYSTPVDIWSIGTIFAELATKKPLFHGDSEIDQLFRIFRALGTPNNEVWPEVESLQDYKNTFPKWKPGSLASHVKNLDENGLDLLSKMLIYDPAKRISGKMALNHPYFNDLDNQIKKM
Chain of CDK1 (P14635 whole entry partner, species assumed, the tested form may be a part): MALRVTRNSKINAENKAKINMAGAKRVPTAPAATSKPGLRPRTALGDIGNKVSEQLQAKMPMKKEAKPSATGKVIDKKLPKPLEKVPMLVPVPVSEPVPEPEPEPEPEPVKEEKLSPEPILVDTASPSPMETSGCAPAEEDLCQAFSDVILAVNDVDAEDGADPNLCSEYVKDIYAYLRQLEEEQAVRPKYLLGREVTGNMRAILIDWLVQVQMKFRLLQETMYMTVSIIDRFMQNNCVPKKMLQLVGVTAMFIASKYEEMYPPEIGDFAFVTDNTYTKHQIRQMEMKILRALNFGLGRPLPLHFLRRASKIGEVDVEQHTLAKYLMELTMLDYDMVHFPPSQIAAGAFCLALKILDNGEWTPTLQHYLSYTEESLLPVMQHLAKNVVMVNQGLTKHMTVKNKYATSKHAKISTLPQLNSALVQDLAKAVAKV
T1 sequence (P00518 2-299 limits assumed): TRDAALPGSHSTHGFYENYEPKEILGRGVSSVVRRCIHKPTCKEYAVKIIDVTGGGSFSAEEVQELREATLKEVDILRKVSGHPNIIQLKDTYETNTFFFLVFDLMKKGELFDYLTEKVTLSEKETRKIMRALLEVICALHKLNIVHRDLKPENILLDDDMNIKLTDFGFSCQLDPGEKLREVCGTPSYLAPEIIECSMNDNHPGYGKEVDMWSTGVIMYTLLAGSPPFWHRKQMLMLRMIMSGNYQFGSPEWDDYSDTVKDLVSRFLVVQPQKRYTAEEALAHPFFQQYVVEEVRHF

Turning to `C(=C\c1n[nH]c2cc(-c3ccnc4[nH]ccc34)ccc12)/c1ccccc1` [Example 52(b), 6-(7-Azaindol-4-yl)-3-E-styryl-1H-indazole], the Ki on CDK1 amounted to 41 nM; on human CHK1 (FL-CHK1), 80 nM. Besides, the inhibition at 10 µM in experiment [1] amounted to 92%. Also, the inhibition at 1 µM in experiment [2] is 94%.

Broadly, the Ki is the equilibrium dissociation constant of an inhibitor or competing ligand from its target. The term inhibition denotes the drop in the measured response relative to a control, in per cent.
